The text below walks through data of PubChem BioAssay (NCI).

Molecules are shown by their SMILES.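 Method: 48-hour compound exposure of cells in 96-well plates, five concentrations, linear interpolation of endpoints. TGI: total growth inhibition.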

For the first test, the system named is SK-MEL-28 melanoma. Put plainly: growth of human tumour cells (NCI), 48 h.
As for `O=c1oc2ccccc2c(Nc2ccc3c(c2)Sc2ccccc2O3)c1[N+](=O)[O-]`, the TGI was 73.3 µM.

For the next test, the system named is NCI-H23 lung. As to the kind of experiment: growth of human tumour cells (NCI), 48 h.
In turn, `Clc1ccc(CCN(CCc2ccc(Cl)c(Cl)c2)CCN2CCCC2)cc1Cl` yielded a TGI of 3.42 µM.

As to `Cc1c(-c2ccccc2)cc(O)c2nc3ccccc3n12`, the TGI is greater than 100 µM.

`Cc1ccc(C(=O)O)c(/C=C2\Cc3ccc(C)cc3C2=O)c1` yielded a TGI greater than 100 µM.

Regarding `C=C(CCOC)CCC1CCCCC(CN(C)C)C1=O` (stereo not drawn), the TGI was greater than 100 µM.

Compound `COc1ccc(/C=C2\N=C(N3CCCCC3)NC2=O)cc1` returned a TGI greater than 100 µM.

On to `COc1c(=O)cc2cc[nH]c3cc[nH]c1c23`, for which the TGI was greater than 100 µM.

`CCCCC1(NN=C2CCCCC2)C(=O)N(c2ccccc2)N(c2ccccc2)C1=O` displayed a TGI greater than 100 µM.

In turn, `CC(C)NC(=O)OCc1c2c(n(C)c1COC(=O)NC(C)C)-c1cc(Cl)c(Cl)cc1CC2` came in with a TGI of 87.9 µM.

For the compound `CNc1ncccc1Nc1cc(=O)n2c3cccnc3n(C)c2c1`, the TGI is greater than 100 µM.

`COc1cc2c(cc1O)c(O)cc1c3cc(OC)c(OC)cc3c[n+](C)c21`: the TGI is 29.5 µM.

`CCOC(=O)c1sc(=S)n(-c2ccc(Cl)cc2)c1-n1cc(-c2ccccc2)c(C#N)c1N` displayed a TGI of 70.6 µM.

In the case of `COC1(OC)N=C(N)C2(C#N)C(c3ccccc3)NC3=C(CCC3)C12C#N` (stereo not drawn), the TGI is greater than 100 µM.

`NC(N)=NS(=O)(=O)c1ccc(NNc2c3ccccc3nc3ccccc23)cc1`: the TGI was 36.4 µM.

`COC(=O)[C@@H]1C[C@H]2OC(=O)CC[C@]2(C)O[C@H]1[C@H]1O[C@@](C)(O)CCC[C@H]1C` gave a TGI greater than 50 µM.

`CC(C)CCNC(=O)c1ccc(CNC(=O)/C=C/c2cccc(Oc3ccccc3)c2)cc1` registered a TGI greater than 100 µM.

On to `COc1cc2c(cc1OCCCCCCCCCCN1C(=O)c3cccc4cccc(c34)C1=O)N=C[C@@H]1CCCN1C2=O`, for which the TGI is 22.4 µM.

`O=C(NC1=C(Cl)C(=O)c2ccccc2C1=O)c1ccccc1` returned a TGI of 71.7 µM.

As to `C/C(=N\NS(=O)(=O)c1ccc(C)cc1)c1ccccn1`, the TGI is greater than 100 µM.

Compound `Cc1c(N2C(=O)C(Cl)C2/C=C/c2ccccc2)c(=O)n(-c2ccccc2)n1C` (stereo not drawn) yielded a TGI of 32.8 µM.

As for `C=CCn1c(N)c(C#N)c(C#N)c1CCC`, the TGI was greater than 100 µM.

Take `C#CCn1c(=O)c(I)cn(/C(=C/C(=O)OCC)C(=O)OCC)c1=O`: the TGI was 45.5 µM.

Take `COc1ccc(CC2COc3cc(OC)cc(OC)c3C2=O)cc1` (stereo not drawn): the TGI is greater than 100 µM.

`O=c1oc2ccccc2c(Nc2ccc3c(c2)Sc2ccccc2O3)c1[N+](=O)[O-]` showed a TGI of 86.7 µM.

The test system of a further test is K-562 leukemia. Put plainly: growth of human tumour cells (NCI), 48 h.
In the case of `Cc1c(-c2ccccc2)cc(O)c2nc3ccccc3n12`, the TGI was greater than 100 µM.

`Cc1ccc(C(=O)O)c(/C=C2\Cc3ccc(C)cc3C2=O)c1` yielded a TGI greater than 100 µM.

In the case of `C=C(CCOC)CCC1CCCCC(CN(C)C)C1=O` (stereo not drawn), the TGI was greater than 100 µM.

With `ONC1=Nc2cc(Cl)ccc2C(=S)N2CSCC12` (stereo not drawn), the TGI was greater than 100 µM.

Regarding `COc1c(=O)cc2cc[nH]c3cc[nH]c1c23`, the TGI was greater than 100 µM.

On to `CCCCC1(NN=C2CCCCC2)C(=O)N(c2ccccc2)N(c2ccccc2)C1=O`, for which the TGI was determined as 64.9 µM.

As for `CC(C)NC(=O)OCc1c2c(n(C)c1COC(=O)NC(C)C)-c1cc(Cl)c(Cl)cc1CC2`, the TGI was determined as 41.6 µM.

`CNc1ncccc1Nc1cc(=O)n2c3cccnc3n(C)c2c1` gave a TGI greater than 100 µM.

In the case of `COc1cc2c(cc1O)c(O)cc1c3cc(OC)c(OC)cc3c[n+](C)c21`, the TGI is greater than 80.5 µM.

For `CCOC(=O)c1sc(=S)n(-c2ccc(Cl)cc2)c1-n1cc(-c2ccccc2)c(C#N)c1N`, the TGI was greater than 100 µM.

In the case of `NC(N)=NS(=O)(=O)c1ccc(NNc2c3ccccc3nc3ccccc23)cc1`, the TGI was 30.9 µM.

`COC(=O)[C@@H]1C[C@H]2OC(=O)CC[C@]2(C)O[C@H]1[C@H]1O[C@@](C)(O)CCC[C@H]1C` returned a TGI greater than 50 µM.

The compound `CC(C)CCNC(=O)c1ccc(CNC(=O)/C=C/c2cccc(Oc3ccccc3)c2)cc1` registered a TGI greater than 100 µM.

As to `COc1cc2c(cc1OCCCCCCCCCCN1C(=O)c3cccc4cccc(c34)C1=O)N=C[C@@H]1CCCN1C2=O`, the TGI turned out to be 74.7 µM.

Consider `O=C(NC1=C(Cl)C(=O)c2ccccc2C1=O)c1ccccc1`, for which the TGI was found to be 54.3 µM.

Compound `C/C(=N\NS(=O)(=O)c1ccc(C)cc1)c1ccccn1` registered a TGI greater than 100 µM.

Turning to `Cc1c(N2C(=O)C(Cl)C2/C=C/c2ccccc2)c(=O)n(-c2ccccc2)n1C` (stereo not drawn), the TGI worked out at 51.1 µM.

The compound `C=CCn1c(N)c(C#N)c(C#N)c1CCC` had a TGI greater than 100 µM.

For `COc1ccc(CC2COc3cc(OC)cc(OC)c3C2=O)cc1` (stereo not drawn), the TGI is greater than 100 µM.

Turning to `O=c1oc2ccccc2c(Nc2ccc3c(c2)Sc2ccccc2O3)c1[N+](=O)[O-]`, the TGI was 57.9 µM.

The next test concerns CCRF-CEM leukemia. Put plainly: growth of human tumour cells (NCI), 48 h.
`Clc1ccc(CCN(CCc2ccc(Cl)c(Cl)c2)CCN2CCCC2)cc1Cl` came in with a TGI of 2.73 µM.

As to `Cc1c(-c2ccccc2)cc(O)c2nc3ccccc3n12`, the TGI was greater than 100 µM.

`Cc1ccc(C(=O)O)c(/C=C2\Cc3ccc(C)cc3C2=O)c1` gave a TGI greater than 100 µM.

`C=C(CCOC)CCC1CCCCC(CN(C)C)C1=O` (stereo not drawn) registered a TGI greater than 100 µM.

Take `ONC1=Nc2cc(Cl)ccc2C(=S)N2CSCC12` (stereo not drawn): the TGI is greater than 100 µM.

Take `COc1ccc(/C=C2\N=C(N3CCCCC3)NC2=O)cc1`: the TGI is greater than 100 µM.

Compound `COc1c(=O)cc2cc[nH]c3cc[nH]c1c23` registered a TGI greater than 100 µM.

As for `CCCCC1(NN=C2CCCCC2)C(=O)N(c2ccccc2)N(c2ccccc2)C1=O`, the TGI stood at 40.7 µM.

In the case of `CC(C)NC(=O)OCc1c2c(n(C)c1COC(=O)NC(C)C)-c1cc(Cl)c(Cl)cc1CC2`, the TGI came out at 65.6 µM.

Compound `CNc1ncccc1Nc1cc(=O)n2c3cccnc3n(C)c2c1` displayed a TGI greater than 100 µM.

In turn, `COc1cc2c(cc1O)c(O)cc1c3cc(OC)c(OC)cc3c[n+](C)c21` yielded a TGI greater than 100 µM.

Compound `CCOC(=O)c1sc(=S)n(-c2ccc(Cl)cc2)c1-n1cc(-c2ccccc2)c(C#N)c1N` registered a TGI greater than 100 µM.

The compound `COC1(OC)N=C(N)C2(C#N)C(c3ccccc3)NC3=C(CCC3)C12C#N` (stereo not drawn) gave a TGI greater than 100 µM.

Compound `NC(N)=NS(=O)(=O)c1ccc(NNc2c3ccccc3nc3ccccc23)cc1` had a TGI of 25.4 µM.

`COC(=O)[C@@H]1C[C@H]2OC(=O)CC[C@]2(C)O[C@H]1[C@H]1O[C@@](C)(O)CCC[C@H]1C`: the TGI is 39.3 µM.

Regarding `O=C(NC1=C(Cl)C(=O)c2ccccc2C1=O)c1ccccc1`, the TGI was greater than 100 µM.

Compound `C/C(=N\NS(=O)(=O)c1ccc(C)cc1)c1ccccn1` displayed a TGI of 78.9 µM.

For the compound `Cc1c(N2C(=O)C(Cl)C2/C=C/c2ccccc2)c(=O)n(-c2ccccc2)n1C` (stereo not drawn), the TGI was 48.1 µM.

Consider `C=CCn1c(N)c(C#N)c(C#N)c1CCC`, for which the TGI is greater than 100 µM.

`C#CCn1c(=O)c(I)cn(/C(=C/C(=O)OCC)C(=O)OCC)c1=O`: the TGI is greater than 57.7 µM.

The compound `O=c1oc2ccccc2c(Nc2ccc3c(c2)Sc2ccccc2O3)c1[N+](=O)[O-]` had a TGI of 81 µM.

Another test concerns MCF7 breast. As to the kind of experiment: growth of human tumour cells (NCI), 48 h.
Turning to `Clc1ccc(CCN(CCc2ccc(Cl)c(Cl)c2)CCN2CCCC2)cc1Cl`, the TGI was found to be 2.88 µM.

Turning to `Cc1c(-c2ccccc2)cc(O)c2nc3ccccc3n12`, the TGI was greater than 100 µM.

`Cc1ccc(C(=O)O)c(/C=C2\Cc3ccc(C)cc3C2=O)c1` registered a TGI greater than 100 µM.
